Data taken from patent US12239132B2, “Compounds and methods for increasing soil nutrient availability” (SOUND AGRICULTURE COMPANY, priority 2018, dated 2025).

system: Bacillus megaterium; test: Phosphate solubilization assay with Bacillus megaterium (liquid NBRIP, malachite green); format: cell-based; settings: 25 ug/mL (solvent 50% acetone), NBRIP, 72 h
Procedure: In some aspects, a compound disclosed herein, e.g., AB09, stimulates bacterial phosphate solubilization activity. […] Cultures of B. megaterium were grown in media containing only insoluble phosphorus with and without a compound such as AB09. At the start of the experiment, there was no detectable difference of orthophosphate levels in the growth media alone and media supplemented with B. megaterium and/or AB09. Orthophosphate was measured after 72 hours of bacterial growth. Specifically, A 5 mL culture of B. megaterium was seeded from a single colony into Nutrient Broth (NB) and grown overnight in a 30° C. shaker. The cell pellet was collected by centrifugation, washed twice and resuspended in water. The concentration of B. megaterium was measured using a Nanodrop OD600 reading. B. megaterium was inoculated into liquid NBRIP media, which contains insoluble tricalcium phosphate as its sole phosphorus source. The final concentration of B. megaterium in the NBRIP media was OD600=0.02 ([…]). NBRIP media was supplemented with ML in a 1% DMSO solution to a final concentration of 100 ug/ML or 1% DMSO (both were filter sterilized through a 0.2 uM filter). Cell counts at the start of the experiment (0 hours) and at 72 hours post inoculation were measured using dilution plating. At the experiment start and after 72 hours of growth, 1 mL of culture was collected from the culture tubes. The supernatant was collected by centrifugation (5 min at 13,000 rpm). The cleared supernatant was diluted […] in molecular grade water and used for orthophosphate analysis. The remaining 4 mL of supernatant were collected by centrifugation for pH readings. Orthophosphate was measured using the malachite-green phosphate method (BioAssay Systems Malachite Green Phosphate Assay Kit Catalog No: POMG-25H). Briefly, the sample is mixed with a solution of Malachite Green and molybdate, which forms a green complex with free orthophosphate from the sample. Data are quantified on a plate reader at 620 nm. Unknown samples were run with a standard curve of known concentrations of orthophosphate. […] Phosphate solubilization in NBRIP culture media is shown at experiment start (0 h) and after 72 hours of shaking at 30° C. The left axis corresponds to box plots and whisker plots of the concentration of solubilized phosphate in the bacterial supernatant. The right axis corresponds to the pH of the supernatant. n=7 culture tubes for each B. megaterium with and without ML, and n=3 culture tubes for no bacteria with and without AB09. The malachite green phosphate assay was performed in triplicate. […] In some instances, disclosed herein are experimental culture tubes of B. megaterium growing in NBRIP without ML (AB09; leftmost two tubes) and with 100 ug/mL ML (right three tubes).
A strain of Bacillus megaterium (B. megaterium) was isolated from Iowa field soil and confirmed its ability to solubilize phosphorus by observing a cleared zone (or halo) around B. megaterium colonies when grown on solid media (NBRIP+Agar) containing only in insoluble form of phosphorus, Ca3(PO4)2. Cultures of B. megaterium were then grown in liquid NBRIP (containing only insoluble Ca3(PO4)2) with and without AB09. The growth media supernatant was analyzed for orthophosphate at the start of the experiment (0 h) and after 72 hours of growth by the malachite green quantification method.
FIG. 1A illustrates phosphate solubilization in NBRIP culture media at experiment start (0 h) and after 72 hours of shaking at 30° C. The left axis corresponds to box plots and whisker plots of the concentration of available phosphate (orthophosphate) in the bacterial supernatant. […] The malachite green phosphate assay was performed in triplicate. FIG. 1B illustrates an example of experimental culture tubes of B. megaterium growing in NBRIP without AB09 (leftmost two tubes) and with 100 ug/mL AB09 (right three tubes). […]

SMILES	phosphate solubilization effect compared to the original AB09 molecule
CC1=CC(Oc2cc(C)oc(=O)c2)OC1=O (stereo not drawn) [SA-004]	enhanced phosphate solubilization effect
CC1=C(C)C(Oc2c(C)occc2=O)OC1=O (stereo not drawn) [SA-002]	enhanced phosphate solubilization effect
CCc1occc(=O)c1OC1C=C(C)C(=O)O1 (stereo not drawn) [SA-005]	did not differ from AB09
